US9725459B2, “3-oxo-tetrahydro-furo[3,2-B]pyrrol-4(5H)-yl) derivatives I” (GRÜNENTHAL GMBH, priority 2014, dated 2017)
pKi: −log10 of the molar value. Where two headings read alike, the source gives them in different places.

Key:
Type in all cases: biochemical
human cathepsin K (CatK) = human cathepsin K (CatK) (Homo sapiens (Human), UniProt P43235); assay: CatK functional enzyme assay; conditions: for pKi: recombinant human CatK, substrate Z-FR-AMC 40 μM, pH 5.5, Ki by Cheng Prusoff equation, read-out: hCatK, Ki
Procedure: (§1) Reference and test compounds were assayed for inhibitory potency (IC50) against human cathepsins using the following assay setups:
(§2) Recombinant human cathepsins (CatS, CatK, CatL) were purchased from a Enzo Life Sciences. All assays were carried out in 96-well format using a buffer of 50 mM KH2PO4, 50 mM NaCl, 2 mM EDTA, 0.5 mM DTT and 1% Triton-X-100, pH 6.5 for Cathepsin S and a buffer of 50 mM NaOAc, 10 mM EDTA, 1 mM DTT and 0.01% Triton-X-100, pH 5.5 for CatK/L/B. For CatS, the enzyme (0.0007 mU/well) was incubated with fluorogeninc substrate (Z-VVR-AMC, 5 μM) at RT for 10 min. For CatK the enzyme (0.00175 mU/well) was incubated with fluorogeninc substrate (Z-FR-AMC, 40 μM) at RT for 10 min. For CatL, the enzyme (0.000874 mU/well) was incubated with fluorogeninc substrate (Z-VVR-AMC, 40 μM) at RT for 10 min. Flourogenic substrate turnover was detected using a microplate reader (Synergy™ H4, BioTek). Ki values were calculated using the Cheng Prusoff equation (Cheng & Prosoff 1973).

human cathepsin S (CatS) = human cathepsin S (CatS) (Homo sapiens (Human), UniProt P25774); assay: CatS functional enzyme assay; conditions: for Selectivity Ki(hCatS)/Ki(hCatK): ratio Ki(hCatS)/Ki(hCatK); for pKi: read-out: hCatS, Ki; for inhibition at 10 µM: read-out: hCatS, inhibition [%] at 10 μM
Procedure: as §2, with “Reference and test compounds were assayed for inhibitory potency (IC50) against human cathepsins using the following assay setups: Recombinant” for “Recombinant”, “All assays were carried out in 96-well format using a buffer of 50 mM KH2PO4, 50 mM NaCl, 2 mM EDTA, 0.5 mM DTT and 1% Triton-X-100, pH 6.5 for Cathepsin S and a buffer of 50 mM NaOAc, 10 mM EDTA, 1 mM DTT and 0.01% Triton-X-100, pH 5.5 for CatK/L/B.” left out

human cathepsin L (CatL) = human cathepsin L (CatL) (Homo sapiens (Human), UniProt P07711); assay: CatL functional enzyme assay; conditions: read-out: hCatL, inhibition [%] at 31.6 μM
Procedure: as §1, §2

[1] = recombinant human CatS, substrate Z-VVR-AMC 5 μM, pH 6.5, Ki by Cheng Prusoff equation

Chain of human cathepsin S (CatS) (P25774 115-331): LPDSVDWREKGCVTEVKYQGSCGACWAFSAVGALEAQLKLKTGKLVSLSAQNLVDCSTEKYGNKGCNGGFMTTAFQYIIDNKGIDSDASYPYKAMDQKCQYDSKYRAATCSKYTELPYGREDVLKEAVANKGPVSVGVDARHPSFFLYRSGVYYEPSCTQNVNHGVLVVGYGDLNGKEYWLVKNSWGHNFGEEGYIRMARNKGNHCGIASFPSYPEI
Chain of human cathepsin K (CatK) (P43235 115-329): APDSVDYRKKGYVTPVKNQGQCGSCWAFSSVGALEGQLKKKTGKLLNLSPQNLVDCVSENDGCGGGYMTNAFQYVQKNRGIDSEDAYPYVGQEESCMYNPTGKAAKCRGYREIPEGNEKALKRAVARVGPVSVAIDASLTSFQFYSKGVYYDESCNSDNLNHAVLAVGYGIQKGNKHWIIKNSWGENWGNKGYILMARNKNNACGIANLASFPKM
Chain of human cathepsin L (CatL) (P07711 114-333): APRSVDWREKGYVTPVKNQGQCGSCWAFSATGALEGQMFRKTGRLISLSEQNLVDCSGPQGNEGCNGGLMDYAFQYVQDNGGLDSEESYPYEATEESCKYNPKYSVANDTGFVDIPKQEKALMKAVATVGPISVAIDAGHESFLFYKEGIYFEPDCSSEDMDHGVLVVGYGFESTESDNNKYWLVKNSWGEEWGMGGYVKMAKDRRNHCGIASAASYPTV

SMILES | pKi (human cathepsin K (CatK)) | Selectivity Ki(hCatS)/Ki(hCatK) (human cathepsin S (CatS)) | pKi (human cathepsin S (CatS); [1]) | inhibition at 31.6 µM (human cathepsin L (CatL)) [%] | pKi (human cathepsin S (CatS)) | inhibition at 10 µM (human cathepsin K (CatK); read-out: hCatK, inhibition [%] at 10 μM) [%] | inhibition at 10 µM (human cathepsin S (CatS)) [%]
O=C(N[C@H](C(=O)N1C[C@H](Cl)[C@H]2OCC(=O)[C@H]21)C1CCCCC1)c1ncc(-c2cncnc2)s1 [Example 24, N-((S)-2-((3aS,6S,6aS)-6-chloro-3-oxotetrahydro-2H-furo[3,2-b]pyrrol-4(5H)-yl)-1-cyclohexyl-2-oxoethyl)-5-(pyrimidin-5-yl)thiazole-2-carboxamide] | 7.66 | 2.8 | 7.21 | 10 |  |  | 
CS(=O)(=O)c1cnnc(-c2ccc(C(=O)N[C@H](C(=O)N3C[C@H](Cl)[C@H]4OCC(=O)[C@H]43)C3CCCCC3)s2)c1 [Example 78, N-((S)-2-((3aS,6S,6aS)-6-chloro-3-oxotetrahydro-2H-furo[3,2-b]pyrrol-4(5H)-yl)-1-cyclohexyl-2-oxoethyl)-5-(5-(methylsulfonyl)pyridazin-3-yl)thiophene-2-carboxamide] | 7.70 | 0.8 | 7.80 | 21 |  |  | 
O=C(N[C@H](C(=O)N1C[C@H](Cl)[C@H]2OCC(=O)[C@H]21)C1CCCCC1)c1ccc(-c2cncnc2)o1 [Example 11, N-((S)-2-((3aS,6S,6aS)-6-chloro-3-oxotetrahydro-2H-furo[3,2-b]pyrrol-4(5H)-yl)-1-cyclohexyl-2-oxoethyl)-5-(pyrimidin-5-yl)furan-2-carboxamide] | 7.06 | 1.1 | 7.00 | 14 |  |  | 
O=C(N[C@H](C(=O)N1C[C@H](Cl)[C@H]2OCC(=O)[C@H]21)C1CCCCC1)c1cc(F)c(-c2cncnc2)s1 [Example 37, N-((S)-2-((3aS,6S,6aS)-6-chloro-3-oxotetrahydro-2H-furo[3,2-b]pyrrol-4(5H)-yl)-1-cyclohexyl-2-oxoethyl)-4-fluoro-5-(pyrimidin-5-yl)thiophene-2-carboxamide] | 7.82 | 26.7 |  | 29 | 6.40 |  | 
O=C(N[C@H](C(=O)N1C[C@H](Cl)[C@H]2OCC(=O)[C@H]21)C1CCCCC1)c1sc(-c2cccnc2)nc1C(F)(F)F [Example 23, N-((S)-2-((3aS,6S,6aS)-6-chloro-3-oxotetrahydro-2H-furo[3,2-b]pyrrol-4(5H)-yl)-1-cyclohexyl-2-oxoethyl)-2-(pyridin-3-yl)-4-(trifluoromethyl)thiazole-5-carboxamide] |  |  |  | 0 |  | 52 | 60
Cc1ncc(-c2cnc(C(=O)N[C@H](C(=O)N3C[C@H](Cl)[C@H]4OCC(=O)[C@H]43)C3CCCCC3)s2)cn1 [Example 41, N-((S)-2-((3aS,6S,6aS)-6-chloro-3-oxotetrahydro-2H-furo[3,2-b]pyrrol-4(5H)-yl)-1-cyclohexyl-2-oxoethyl)-5-(2-methylpyrimidin-5-yl)thiazole-2-carboxamide] | 7.59 |  | 6.84 | 25 |  |  | 
N#Cc1cncc(-c2ccc(C(=O)N[C@H](C(=O)N3C[C@H](Cl)[C@H]4OCC(=O)[C@H]43)C3CCCCC3)s2)c1 [Example 39, N-((S)-2-((3aS,6S,6aS)-6-chloro-3-oxotetrahydro-2H-furo[3,2-b]pyrrol-4(5H)-yl)-1-cyclohexyl-2-oxoethyl)-5-(5-cyanopyridin-3-yl)thiophene-2-carboxamide] | 7.72 | 11.8 | 6.65 | 19 |  |  | 
O=C(N[C@H](C(=O)N1C[C@H](Cl)[C@H]2OCC(=O)[C@H]21)C1CCCCC1)c1cnc(-c2cccnc2)s1 [Example 13, N-((S)-2-((3aS,6S,6aS)-6-chloro-3-oxotetrahydro-2H-furo[3,2-b]pyrrol-4(5H)-yl)-1-cyclohexyl-2-oxoethyl)-2-(pyridin-3-yl)thiazole-5-carboxamide] | 7.54 |  |  | 16 |  |  | 73
O=C(N[C@H](C(=O)N1C[C@H](Cl)[C@H]2OCC(=O)[C@H]21)C1CCCCC1)c1ccc(-c2cccnc2)s1 [Example 2, N-((S)-2-((3aS,6S,6aS)-6-chloro-3-oxotetrahydro-2H-furo[3,2-b]pyrrol-4(5H)-yl)-1-cyclohexyl-2-oxoethyl)-5-(pyridin-3-yl)thiophene-2-carboxamide] | 8.30 | 23.0 |  | 10 | 6.94 |  | 
O=C(N[C@H](C(=O)N1C[C@H](Cl)[C@H]2OCC(=O)[C@H]21)C1CCCCC1)c1ccc(-c2ccnc(C3CC3)c2)s1 [Example 66, N-((S)-2-((3aS,6S,6aS)-6-chloro-3-oxotetrahydro-2H-furo[3,2-b]pyrrol-4(5H)-yl)-1-cyclohexyl-2-oxoethyl)-5-(2-cyclopropylpyridin-4-yl)thiophene-2-carboxamide] | 8.15 | 5.0 | 7.47 | 3 |  |  | 

More lines, main results first:

pKi (human cathepsin K (CatK)) | Selectivity Ki(hCatS)/Ki(hCatK) (human cathepsin S (CatS)) | pKi (human cathepsin S (CatS); [1]) | inhibition at 31.6 µM (human cathepsin L (CatL)) [%] | pKi (human cathepsin S (CatS)) | inhibition at 10 µM (human cathepsin K (CatK); read-out: hCatK, inhibition [%] at 10 μM) [%] | SMILES | inhibition at 10 µM (human cathepsin S (CatS)) [%]
7.54 | 21.3 | 6.21 | 5 |  |  | O=C(N[C@H](C(=O)N1C[C@H](Cl)[C@H]2OCC(=O)[C@H]21)C1CCCCC1)c1ncc(-c2ccc(C3CC3)nc2)s1 [Example 64, N-((S)-2-((3aS,6S,6aS)-6-chloro-3-oxotetrahydro-2H-furo[3,2-b]pyrrol-4(5H)-yl)-1-cyclohexyl-2-oxoethyl)-5-(6-cyclopropylpyridin-3-yl)thiazole-2-carboxamide] | 
7.80 | 10.7 | 6.76 | 23 |  |  | Cc1ccc(-c2ccc(C(=O)N[C@H](C(=O)N3C[C@H](Cl)[C@H]4OCC(=O)[C@H]43)C3CCCCC3)s2)nn1 [Example 35, N-((S)-2-((3aS,6S,6aS)-6-chloro-3-oxotetrahydro-2H-furo[3,2-b]pyrrol-4(5H)-yl)-1-cyclohexyl-2-oxoethyl)-5-(6-methylpyridazin-3-yl)thiophene-2-carboxamide] | 
6.98 | 2.3 | 6.62 | 11 |  |  | O=C(N[C@H](C(=O)N1C[C@H](Cl)[C@H]2OCC(=O)[C@H]21)C1CCCCC1)c1sc(-c2ccnnc2)cc1F [Example 60, N-((S)-2-((3aS,6S,6aS)-6-chloro-3-oxotetrahydro-2H-furo[3,2-b]pyrrol-4(5H)-yl)-1-cyclohexyl-2-oxoethyl)-3-fluoro-5-(pyridazin-4-yl)thiophene-2-carboxamide] | 
7.70 | 15.9 | 6.50 | 22 |  |  | Cc1nccc(-c2cnc(C(=O)N[C@H](C(=O)N3C[C@H](Cl)[C@H]4OCC(=O)[C@H]43)C3CCCCC3)s2)n1 [Example 32, N-((S)-2-((3aS,6S,6aS)-6-chloro-3-oxotetrahydro-2H-furo[3,2-b]pyrrol-4(5H)-yl)-1-cyclohexyl-2-oxoethyl)-5-(2-methylpyrimidin-4-yl)thiazole-2-carboxamide] | 
7.74 | 81.7 | 5.83 | 4 |  |  | O=C(N[C@H](C(=O)N1C[C@H](Cl)[C@H]2OCC(=O)[C@H]21)C1CCCCC1)c1ccc(-c2ncccn2)s1 [Example 9, N-((S)-2-((3aS,6S,6aS)-6-chloro-3-oxotetrahydro-2H-furo[3,2-b]pyrrol-4(5H)-yl)-1-cyclohexyl-2-oxoethyl)-5-(pyrimidin-2-yl)thiophene-2-carboxamide] | 
6.93 | 6.2 | 6.14 | 0 |  |  | O=C(N[C@H](C(=O)N1C[C@H](Cl)[C@H]2OCC(=O)[C@H]21)C1CCCCC1)c1sc(-c2cccnn2)cc1F [Example 59, N-((S)-2-((3aS,6S,6aS)-6-chloro-3-oxotetrahydro-2H-furo[3,2-b]pyrrol-4(5H)-yl)-1-cyclohexyl-2-oxoethyl)-3-fluoro-5-(pyridazin-3-yl)thiophene-2-carboxamide] | 
